In the supplement of paper PMC10307832:

Experiments:
Test in all cases: relative viability (nuclei count vs DMSO), 5 days (fraction); higher = more cells survive
IU1-47 + Pictilisib = compound: CC1=CC(=C(N1C2=CC=C(C=C2)Cl)C)C(=O)CN3CCCCC3 [IU1-47] + CS(=O)(=O)N1CCN(Cc2cc3nc(-c4cccc5[nH]ncc45)nc(N4CCOCC4)c3s2)CC1 [Pictilisib] (partner 1 µM)
How it was run: (§1)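 For relative viability, nuclei counts in treated wells were divided by those in vehicle wells. Lung cancer cell lines had been pin-tool dosed in 1536-well plates the day after seeding and cultured for 5 days, then fixed and stained in one step (final 0.05% Triton X-100, 1% formaldehyde, 1 ug/ml Hoechst) and imaged at 4×. Doses were one drug alone or a fixed anchor-drug dose plus five library-drug doses (not always all listed) in √10 steps, and values are duplicate-plate medians.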

IU1-47 + Trametinib = compound: CC1=CC(=C(N1C2=CC=C(C=C2)Cl)C)C(=O)CN3CCCCC3 [IU1-47] + CC(=O)Nc1cccc(-n2c(=O)n(C3CC3)c(=O)c3c(Nc4ccc(I)cc4F)n(C)c(=O)c(C)c32)c1 [Trametinib] (partner 0.02 µM)
How it was run: as §1

IU1-47 + Lapatinib = compound: CC1=CC(=C(N1C2=CC=C(C=C2)Cl)C)C(=O)CN3CCCCC3 [IU1-47] + CS(=O)(=O)CCNCc1ccc(-c2ccc3ncnc(Nc4ccc(OCc5cccc(F)c5)c(Cl)c4)c3c2)o1 [Lapatinib] (partner 2 µM)
How it was run: as §1

FG-4592 + Trametinib = compound: Cc1nc(C(=O)NCC(=O)O)c(O)c2ccc(Oc3ccccc3)cc12 [FG-4592] + CC(=O)Nc1cccc(-n2c(=O)n(C3CC3)c(=O)c3c(Nc4ccc(I)cc4F)n(C)c(=O)c(C)c32)c1 [Trametinib] (partner 0.02 µM)
How it was run: as §1

**Q.** How did the relative viability (IU1-47 + Pictilisib; first compound 0.08 µM) turn out when UMC-11 was run?
**A.** 0.678

**Q.** What about the relative viability (IU1-47 + Pictilisib; first compound 0.253 µM) of the same cell line?
**A.** 0.75

**Q.** What about the relative viability (IU1-47 + Pictilisib; first compound 0.8 µM) of the same cell line?
**A.** 0.868

**Q.** And the relative viability (IU1-47 + Pictilisib; first compound 2.53 µM)?
**A.** 1.01

**Q.** What about the relative viability (IU1-47 + Pictilisib; first compound 8 µM) of the same cell line?
**A.** 0.743

**Q.** And the relative viability (IU1-47 + Trametinib; first compound 0.08 µM)?
**A.** 0.681

**Q.** What about the relative viability (IU1-47 + Trametinib; first compound 0.253 µM) of the same cell line?
**A.** 0.681

**Q.** What about the relative viability (IU1-47 + Trametinib; first compound 0.8 µM) of the same cell line?
**A.** 0.748

**Q.** What about the relative viability (IU1-47 + Trametinib; first compound 2.53 µM) of the same cell line?
**A.** 0.741

**Q.** And the relative viability (IU1-47 + Trametinib; first compound 8 µM)?
**A.** 0.664

**Q.** What about the relative viability (IU1-47 + Lapatinib; first compound 0.08 µM) of the same cell line?
**A.** 0.887

**Q.** What about the relative viability (IU1-47 + Lapatinib; first compound 0.253 µM) of the same cell line?
**A.** 0.877

**Q.** And the relative viability (IU1-47 + Lapatinib; first compound 0.8 µM)?
**A.** 1.03

**Q.** What about the relative viability (IU1-47 + Lapatinib; first compound 2.53 µM) of the same cell line?
**A.** 1.24

**Q.** And the relative viability (IU1-47 + Lapatinib; first compound 8 µM)?
**A.** 0.876

**Q.** And the relative viability (FG-4592 + Trametinib; first compound 0.08 µM)?
**A.** 0.626

**Q.** And the relative viability (FG-4592 + Trametinib; first compound 0.253 µM)?
**A.** 0.697

**Q.** And the relative viability (FG-4592 + Trametinib; first compound 0.8 µM)?
**A.** 0.504

**Q.** And the relative viability (FG-4592 + Trametinib; first compound 2.53 µM)?
**A.** 0.528

**Q.** What about the relative viability (FG-4592 + Trametinib; first compound 8 µM) of the same cell line?
**A.** 0.452
